In PubChem BioAssay (NCI):
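Cultured in 96-well plates, cells were exposed to test compound for 48 hours across five concentrations. TGI: total growth inhibition.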

How the values were obtained:
Assay in all cases: growth of human tumour cells (NCI), 48 h
[1] = test system: SR leukemia
[2] = test system: SK-OV-3 ovarian
[3] = test system: MDA-MB-231 breast
[4] = test system: SNB-19 CNS
[5] = test system: OVCAR-5 ovarian
[6] = test system: K-562 leukemia
[7] = test system: RPMI-8226 leukemia
[8] = test system: 786-0 renal
[9] = test system: HOP-92 NSCLC
[10] = test system: DU-145 prostate
[11] = test system: MCF7 breast
[12] = test system: IGROV1 ovarian
[13] = test system: SF-268 CNS
[14] = test system: U251 CNS
[15] = test system: EKVX NSCLC
[16] = test system: SNB-75 CNS
[17] = test system: SK-MEL-5 melanoma
[18] = test system: OVCAR-8 ovarian
[19] = test system: NCI/ADR-RES ovarian
[20] = test system: MOLT-4 leukemia
[21] = test system: NCI-H226 lung
[22] = test system: HT29 colon
[23] = test system: HOP-62 NSCLC
[24] = test system: CCRF-CEM leukemia
[25] = test system: SK-MEL-2 melanoma
[26] = test system: A549 NSCLC
[27] = test system: HL-60(TB) leukemia
[28] = test system: NCI-H460 lung
[29] = test system: SN12C renal
[30] = test system: UACC-257 melanoma
[31] = test system: HS 578T breast
[32] = test system: NCI-H23 lung
[33] = test system: COLO 205 colon
[34] = test system: M14 melanoma
[35] = test system: MDA-N
[36] = test system: PC-3 prostate
[37] = test system: HCC-2998 colon
[38] = test system: LOX IMVI melanoma
[39] = test system: SK-MEL-28 melanoma
[40] = test system: SW-620 colon
[41] = test system: OVCAR-4 ovarian
[42] = test system: BT-549 breast
[43] = test system: CAKI-1 renal
[44] = test system: MDA-MB-435
[45] = test system: HCT-116 colon
[46] = test system: OVCAR-3 ovarian
[47] = test system: MALME-3M melanoma
[48] = test system: NCI-H522 lung
[49] = test system: RXF 393 renal
[50] = test system: UACC-62 melanoma
[51] = test system: TK-10 renal
[52] = test system: UO-31 renal
[53] = test system: KM12 colon
[54] = test system: HCT-15 colon
[55] = test system: SF-295 CNS
[56] = test system: T-47D breast
[57] = test system: ACHN renal
[58] = test system: SF-539 CNS
[59] = test system: A498 renal

Question: Which TGI [1] does the source give for COc1cnc2cc(C(=O)O)c3c([N+](=O)[O-])cccc3c2c1 here?
Answer: The TGI was greater than 100 µM.

Question: And the TGI [2]?
Answer: The TGI was greater than 100 µM.

Question: What about the TGI [3] of the same compound?
Answer: Its TGI is greater than 100 µM.

Question: And the TGI [4]?
Answer: Its TGI is greater than 100 µM.

Question: And the TGI [5]?
Answer: The TGI was greater than 100 µM.

Question: What about the TGI [6] of the same compound?
Answer: The TGI was greater than 100 µM.

Question: And the TGI [7]?
Answer: Its TGI is greater than 100 µM.

Question: And the TGI [8]?
Answer: Its TGI is greater than 100 µM.

Question: And the TGI [9]?
Answer: The TGI was greater than 100 µM.

Question: What about the TGI [10] of the same compound?
Answer: The TGI was greater than 100 µM.

Question: And the TGI [11]?
Answer: Its TGI is greater than 100 µM.

Question: And the TGI [12]?
Answer: The TGI was greater than 100 µM.

Question: And the TGI [13]?
Answer: Its TGI is greater than 100 µM.

Question: And the TGI [14]?
Answer: Its TGI is greater than 100 µM.

Question: And the TGI [15]?
Answer: Its TGI is greater than 100 µM.

Question: And the TGI [16]?
Answer: The TGI was greater than 100 µM.

Question: What about the TGI [17] of the same compound?
Answer: The TGI was greater than 100 µM.

Question: And the TGI [18]?
Answer: Its TGI is greater than 100 µM.

Question: What about the TGI [19] of the same compound?
Answer: The TGI was greater than 100 µM.

Question: What about the TGI [20] of the same compound?
Answer: The TGI was greater than 100 µM.

Question: What about the TGI [21] of the same compound?
Answer: The TGI was greater than 100 µM.

Question: And the TGI [22]?
Answer: The TGI was greater than 100 µM.

Question: And the TGI [23]?
Answer: The TGI was greater than 100 µM.

Question: And the TGI [24]?
Answer: The TGI was greater than 100 µM.

Question: What about the TGI [25] of the same compound?
Answer: Its TGI is greater than 100 µM.

Question: And the TGI [26]?
Answer: The TGI was greater than 100 µM.

Question: And the TGI [27]?
Answer: The TGI was greater than 100 µM.

Question: And the TGI [28]?
Answer: Its TGI is greater than 100 µM.

Question: And the TGI [29]?
Answer: Its TGI is greater than 100 µM.

Question: What about the TGI [30] of the same compound?
Answer: The TGI was greater than 100 µM.

Question: And the TGI [31]?
Answer: The TGI was greater than 100 µM.

Question: What about the TGI [32] of the same compound?
Answer: Its TGI is greater than 100 µM.

Question: And the TGI [33]?
Answer: The TGI was greater than 100 µM.

Question: And the TGI [34]?
Answer: The TGI was greater than 100 µM.

Question: What about the TGI [35] of the same compound?
Answer: Its TGI is greater than 100 µM.

Question: And the TGI [36]?
Answer: The TGI was greater than 100 µM.

Question: What about the TGI [37] of the same compound?
Answer: The TGI was greater than 100 µM.

Question: What about the TGI [38] of the same compound?
Answer: The TGI was greater than 100 µM.

Question: What about the TGI [39] of the same compound?
Answer: The TGI was greater than 100 µM.

Question: What about the TGI [40] of the same compound?
Answer: The TGI was greater than 100 µM.

Question: What about the TGI [41] of the same compound?
Answer: Its TGI is greater than 100 µM.

Question: What about the TGI [42] of the same compound?
Answer: Its TGI is greater than 100 µM.

Question: And the TGI [43]?
Answer: The TGI was greater than 100 µM.

Question: And the TGI [44]?
Answer: The TGI was greater than 100 µM.

Question: What about the TGI [45] of the same compound?
Answer: Its TGI is greater than 100 µM.

Question: And the TGI [46]?
Answer: The TGI was greater than 100 µM.

Question: And the TGI [47]?
Answer: Its TGI is greater than 100 µM.

Question: What about the TGI [48] of the same compound?
Answer: Its TGI is greater than 100 µM.

Question: And the TGI [49]?
Answer: Its TGI is greater than 100 µM.

Question: What about the TGI [50] of the same compound?
Answer: Its TGI is greater than 100 µM.

Question: What about the TGI [51] of the same compound?
Answer: The TGI was greater than 100 µM.

Question: And the TGI [52]?
Answer: The TGI was greater than 100 µM.

Question: What about the TGI [53] of the same compound?
Answer: Its TGI is greater than 100 µM.

Question: What about the TGI [54] of the same compound?
Answer: The TGI was greater than 100 µM.

Question: What about the TGI [55] of the same compound?
Answer: The TGI was greater than 100 µM.

Question: And the TGI [56]?
Answer: The TGI was greater than 100 µM.

Question: And the TGI [57]?
Answer: The TGI was greater than 100 µM.

Question: Which results are given for CC1(O)CC(C(F)(F)F)(C(F)(F)F)OC1=O (configuration not stated)?
Answer: TGI [1]: > 10 µM; TGI [2]: > 10 µM; TGI [3]: > 10 µM; TGI [58]: > 10 µM; TGI [4]: > 10 µM; TGI [5]: > 10 µM; TGI [6]: > 10 µM; TGI [7]: > 10 µM; TGI [8]: > 10 µM; TGI [9]: > 10 µM; TGI [10]: > 10 µM; TGI [11]: > 10 µM; TGI [12]: > 10 µM; TGI [13]: > 10 µM; TGI [14]: > 10 µM; TGI [15]: > 10 µM; TGI [17]: > 10 µM; TGI [18]: > 10 µM; TGI [19]: > 10 µM; TGI [20]: > 10 µM; TGI [21]: > 10 µM; TGI [22]: > 10 µM; TGI [23]: > 10 µM; TGI [24]: > 10 µM; TGI [26]: > 10 µM; TGI [28]: > 10 µM; TGI [29]: > 10 µM; TGI [30]: > 10 µM; TGI [31]: > 10 µM; TGI [32]: > 10 µM; TGI [33]: > 10 µM; TGI [34]: > 10 µM; TGI [35]: > 10 µM; TGI [36]: > 10 µM; TGI [37]: > 10 µM; TGI [38]: > 10 µM; TGI [39]: > 10 µM; TGI [40]: > 10 µM; TGI [41]: > 10 µM; TGI [42]: > 10 µM; TGI [43]: > 10 µM; TGI [44]: > 10 µM; TGI [45]: > 10 µM; TGI [46]: > 10 µM; TGI [47]: > 10 µM; TGI [48]: > 10 µM; TGI [59]: > 10 µM; TGI [50]: > 10 µM; TGI [51]: > 10 µM; TGI [52]: > 10 µM; TGI [53]: > 10 µM; TGI [54]: > 10 µM; TGI [55]: > 10 µM; TGI [56]: > 10 µM; TGI [57]: > 10 µM
